{"source": "paper PMC4919643", "about": "“Intestinally-targeted TGR5 agonists equipped with quaternary ammonium have an improved hypoglycemic effect and reduced gallbladder filling effect” (Scientific Reports, 2016)", "key": {"[1]": {"test": "Caco-2 permeability determination", "type": "in vitro ADME", "conditions": "human", "experimental": "Caco-2 permeability determination. Caco-2 permeability determination was carried out […]\nCaco-2 cells were obtained from the ATCC (Cat#HTB-37) and maintained in Dulbecco’s modified Eagle’s Medium containing 10% fetal bovine serum, 1% glutamine, 1% nonessential amino acids, 100 μg/mL streptomycin, and 100 U/mL penicillin.\nCO2 and 90% relative humidity environment. Caco-2 cells were passaged every 7 days at a ratio of 1:10. Cells were used between passages 30 and 40. After 21 days of culture, the integrity of the cell monolayer was verified by measuring the transepithelial electrical […]\nDrug transport from the apical side to the basolateral side (A-B) and from the basolateral side to the apical side was measured simultaneously under the same condition.\nPropranolol and atenolol were used as the […] control, respectively.\nDigoxin was used as the positive control for Pgp-mediated drug efflux. In brief, the method was as follows. After washing the monolayer with HBSS three times, the compounds were diluted and added to the appropriate well (pH 6.8 for apical side and pH […]\n7.4 for basolateral side). […] Samples were […]\ncollected from the donor side at 5 and 95 min, and from the receiver side at 35 and 95 min post-incubation. The concentration of samples was measured by LC-MS/MS. The Papp was calculated from the following equation:\nPapp = (VA/(SA×T))×([drug]acceptor/ [durg]initial donor )\nWhere VA is the volume of the acceptor well, SA is the surface area of the membrane, T is the total transport time, [drug]acceptor is the drug level at the acceptor side, and [drug]initial donor is the drug level at the donor side at T = 0. […]"}, "[2]": {"test": "Solubility in water determined by LC-MS/MS", "type": "physicochemical"}, "ob/ob mice [3]": {"test_system": "ob/ob mice", "test": "Acute efficacy (blood glucose) in ob/ob mice", "type": "in vivo, mouse", "conditions": "100 mg/kg p.o. single dose", "experimental": "Mice were refed at 6 h after dosing. *p < 0.05, **p < 0.01 vs. control. Error bar indicates SEM.\nAcute efficacy in ob/ob mice. 7-week-old ob/ob mice (male) were divided into three groups (n = 8) based on 2 h-fasted blood glucose. […]\nmg/kg) and 0.25% CMC (control) was then orally administered to 2 h-fasted mice, and blood glucose was measured at 2, 4, 6, 8, 10, and 24 h after dosing. The animals were refed at 6 h after dosing.\nGLP-1 secretion in ob/ob mice. The ob/ob mice (female) were divided into 4 groups and […]\nthen divided into 3 subgroup of different time point (n = 8-9 each subgroup). All the animals were fasted for 6 hours before collecting blood samples at the indicated time points. At other times, animals were free accessed to water and food. […] Concentrations of active GLP-1[7-36 amide] in the serum were measured using ELISA kit from Linco Research. […]\nadministered to 12 h-fasted ob/ob mice (n = 3 per time point). […] After centrifugation at 11000 rpm for 5 mins, the supernatant was analyzed by LC-MS/MS. […]\nadministered orally to overnight-fasted ob/ob mice (male, n = 3-6). 1 h after dosing, mice were refed for 3 hours, and then gallbladders were removed, and the area was measured using vernier caliper. The relative gallbladder area was calculated from the length multiplied by the width of the gallbladder. The bile weight was measured using […]"}, "[4]": {"test": "Pharmacokinetics assay of 26a in ob/ob mice (plasma and intestinal tissue)", "type": "in vivo, mouse", "experimental": "The blood and intestinal tissue samples were collected before dosing or 2, 4, 6, 10, 16, and 24 h after dosing. Density of intestinal tissue was taken as 1 g/ml. Error bar indicates SEM. […]\nPharmacokinetics assay of 26a in ob/ob mice. […]\nadministered to 12 h-fasted ob/ob mice (n = 3 per time point). Blood and intestinal tissue samples were collected before dosing or 2 h, 4 h, 6 h, 10 h 16 h, 24 h after dosing. Blood samples were centrifuged at 11000 rpm for 5 min to isolate the plasma. 25 μL of the sample was mixed with 75 μL MeOH. After centrifugation at 11000 rpm for 5 mins, the supernatant was analyzed by LC-MS/MS.\nThe tissues were ground and homogenated with 0.9% NaCl solution (1:4, w/v), and then the homogenates were centrifuged at 12,000 rpm for 10 min at 4 °C. The supernatant was collected, and 100 μL aliquot of supernatant was spiked with 300 μL methanol, and then treated as the same fashion as plasma sample. […]"}, "ob/ob mice [5]": {"test_system": "ob/ob mice", "test": "Long-term (18-day) study in ob/ob mice", "type": "in vivo, mouse", "conditions": "for decrease of HbA1c level on day 18: 18 days; for HbA1c, signed change vs control (Fig. 9C): day 18"}, "[6]": {"molecular_target": "T1, farnesyl X receptor (FXR) (Homo sapiens, UniProt Q96RI1)", "T1 sequence (Q96RI1 262-486 limits assumed)": "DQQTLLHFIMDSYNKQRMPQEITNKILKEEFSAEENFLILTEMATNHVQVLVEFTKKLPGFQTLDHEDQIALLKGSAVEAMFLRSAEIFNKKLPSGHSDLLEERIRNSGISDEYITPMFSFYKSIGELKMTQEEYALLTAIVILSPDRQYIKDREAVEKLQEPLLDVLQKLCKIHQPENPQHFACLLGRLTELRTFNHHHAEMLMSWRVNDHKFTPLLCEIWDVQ", "test": "FXR assay (LanthaScreen TR-FRET coactivator assay)"}, "[7]": {"conditions": "100 mg/kg p.o., after 18-day treatment"}, "[8]": {"conditions": "18-day treatment, 50 or 100 mg/kg p.o., dose-dependent"}, "[9]": {"conditions": "18-day treatment, data not shown"}}, "note": "Like-named read-outs stand apart in the source and are kept apart here.", "data": [{"smiles": "CN(CC[N+](C)(C)C)C(=O)CCc1cc(Cl)c(Oc2ccsc2C(=O)N2CCN(C3CC3)c3ccccc32)cc1Cl", "note": "[Compound 26a]", "values": [{"measurement": "Papp A→B at 95 min", "setting": "[1]; Caco-2, apical to basolateral side", "value": 0.06, "unit": "×10⁻⁶ cm/s"}, {"measurement": "Papp B→A at 95 min", "setting": "[1]; Caco-2, basolateral to apical side", "value": 0.8, "unit": "×10⁻⁶ cm/s"}, {"measurement": "solubility", "setting": "[2]", "value": 1800, "unit": "µg/mL"}, {"measurement": "time post-dosing until which glucose-lowering effect was maintained", "setting": "ob/ob mice [3]", "value": "at least 24 h"}, {"measurement": "time of Cmax in intestinal tissue", "setting": "[4]; 100 mg/kg p.o. single dose", "value": 2, "unit": "h"}, {"measurement": "time of Cmax in plasma", "setting": "[4]; 100 mg/kg p.o. single dose", "value": 2, "unit": "h"}, {"measurement": "Cmax", "setting": "[4]; male, mouse, colon, po, 100 mg/kg p.o., at 2 h, tissue density taken as 1 g/ml, read-out: Cmax in colon tissue", "value": 27, "unit": "µg/mL"}, {"measurement": "Cmax", "setting": "[4]; male, mouse, duodenum, po, 100 mg/kg p.o., at 2 h, tissue density taken as 1 g/ml, read-out: Cmax in duodenum tissue", "value": 136, "unit": "µg/mL"}, {"measurement": "Cmax", "setting": "[4]; male, mouse, ileum, po, 100 mg/kg p.o., at 2 h, tissue density taken as 1 g/ml, read-out: Cmax in ileum tissue", "value": 331, "unit": "µg/mL"}, {"measurement": "concentration at 24 h", "setting": "[4]; male, mouse, intestinal tissue, po, 100 mg/kg p.o. single dose, read-out: level in intestinal tissue at 24 h", "value": "> 0.8", "unit": "µg/mL"}, {"measurement": "Cmax", "setting": "[4]; male, mouse, jejunum, po, 100 mg/kg p.o., at 2 h, tissue density taken as 1 g/ml, read-out: Cmax in jejunum tissue", "value": 92, "unit": "µg/mL"}, {"measurement": "Cmax", "setting": "[4]; male, mouse, plasma, po, 100 mg/kg p.o. single dose, read-out: Cmax in plasma", "value": 0.071, "unit": "µg/mL"}, {"measurement": "concentration at 10 h", "setting": "[4]; male, mouse, plasma, po, 100 mg/kg p.o. single dose, read-out: drug concentration in plasma after 10 h", "value": "< 0.01", "unit": "µg/mL"}, {"measurement": "decrease of HbA1c level on day 18", "setting": "ob/ob mice [5]; 50 mg/kg p.o., not significant", "value": 0.48, "unit": "%"}, {"measurement": "triglyceride, signed change vs control (Fig. 9D)", "setting": "ob/ob mice [5]; 50 mg/kg p.o., after 18-day treatment", "value": -7.2, "unit": "%"}, {"measurement": "HbA1c, signed change vs control (Fig. 9C)", "setting": "ob/ob mice [5]; 50 mg/kg p.o.", "value": -0.48, "unit": "%"}, {"measurement": "decrease of HbA1c level on day 18", "setting": "ob/ob mice [5]; 100 mg/kg p.o., significant", "value": 0.94, "unit": "%"}, {"measurement": "decrease of triglyceride level", "setting": "ob/ob mice [5]; [7]", "value": 22, "unit": "%"}, {"measurement": "triglyceride, signed change vs control (Fig. 9D)", "setting": "ob/ob mice [5]; [7]", "value": -22, "unit": "%"}, {"measurement": "HbA1c, signed change vs control (Fig. 9C)", "setting": "ob/ob mice [5]; 100 mg/kg p.o.", "value": -0.94, "unit": "%"}, {"measurement": "body weight of mice", "setting": "ob/ob mice [5]; 18-day treatment", "value": "not affected"}, {"measurement": "significant change in levels of total cholesterol", "setting": "ob/ob mice [5]; 18-day treatment, 50 or 100 mg/kg p.o.", "value": "not observed"}, {"measurement": "fasting blood glucose", "setting": "ob/ob mice [5]; [8]", "value": "decreased dramatically"}, {"measurement": "non-fasting blood glucose", "setting": "ob/ob mice [5]; [8]", "value": "decreased dramatically"}, {"measurement": "level of alanine aminotransferase", "setting": "ob/ob mice [5]; [9]", "value": "No significant changes"}, {"measurement": "level of alkaline phosphatase", "setting": "ob/ob mice [5]; [9]", "value": "No significant changes"}, {"measurement": "level of aspartate aminotransferase", "setting": "ob/ob mice [5]; [9]", "value": "No significant changes"}, {"measurement": "level of total bilirubin", "setting": "ob/ob mice [5]; [9]", "value": "No significant changes"}, {"measurement": "concentration up to which activation of FXR was not observed", "setting": "[6]", "value": "> 100", "unit": "µM"}]}]}
